# Experimental data: the supplement of paper PMC10307832
# Assays:
# Assay in all cases: relative viability (nuclei count vs DMSO), 5 days (fraction); higher = more cells survive
# [1] = compound: CCN1CCN(c2ccc(Nc3cc(N(C)C(=O)Nc4c(Cl)c(OC)cc(OC)c4Cl)ncn3)cc2)CC1 [BGJ398] + Cc1nc(Nc2ncc(C(=O)Nc3c(C)cccc3Cl)s2)cc(N2CCN(CCO)CC2)n1 [Dasatinib] (partner 0.075 µM)
# How it was run: (§1)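 Cells from lung cancer lines were seeded into 1536-well plates and, one day later, dosed by pin tool. Treatments were either a single drug or a fixed dose of an anchor drug with five library-drug doses (not always all listed) in √10 steps. After 5 days, nuclei were stained in a one-step fixation (final 0.05% Triton X-100, 1% formaldehyde, 1 ug/ml Hoechst) and counted on 4× images, and relative viability is the treated-to-vehicle nuclei ratio, as the median of duplicate plates.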
# [2] = compound: C1=CC2=NC=CN=C2C=C1/C=C/3\C(=O)NC(=O)S3 + C[C@@H](Oc1cc(-c2cnn(C3CCNCC3)c2)cnc1N)c1c(Cl)ccc(F)c1Cl [Crizotinib] (partner 1 µM)
# How it was run: as §1
# [3] = compound: CCN1CCN(c2ccc(Nc3cc(N(C)C(=O)Nc4c(Cl)c(OC)cc(OC)c4Cl)ncn3)cc2)CC1 [BGJ398] + CCNC(=O)c1noc(-c2cc(C(C)C)c(O)cc2O)c1-c1ccc(CN2CCOCC2)cc1 [Luminespib] (partner 0.01 µM)
# How it was run: as §1
# [4] = compound: CCN1CCN(c2ccc(Nc3cc(N(C)C(=O)Nc4c(Cl)c(OC)cc(OC)c4Cl)ncn3)cc2)CC1 [BGJ398] + CC1(C)CCC(c2ccc(Cl)cc2)=C(CN2CCN(c3ccc(C(=O)NS(=O)(=O)c4ccc(N[C@H](CCN5CCOCC5)CSc5ccccc5)c(S(=O)(=O)C(F)(F)F)c4)cc3)CC2)C1 [Navitoclax] (partner 0.5 µM)
# How it was run: as §1
Cell Line,relative viability ([1]; first compound 0.01 µM),relative viability ([1]; first compound 0.03162 µM),relative viability ([1]; first compound 0.1 µM),relative viability ([1]; first compound 0.3162 µM),relative viability ([1]; first compound 1 µM),relative viability ([2]; first compound 0.02 µM),relative viability ([2]; first compound 0.06325 µM),relative viability ([2]; first compound 0.2 µM),relative viability ([2]; first compound 0.6325 µM),relative viability ([2]; first compound 2 µM),relative viability ([3]; first compound 0.01 µM),relative viability ([3]; first compound 0.03162 µM),relative viability ([3]; first compound 0.1 µM),relative viability ([3]; first compound 0.3162 µM),relative viability ([3]; first compound 1 µM),relative viability ([4]; first compound 0.01 µM),relative viability ([4]; first compound 0.03162 µM),relative viability ([4]; first compound 0.1 µM),relative viability ([4]; first compound 0.3162 µM),relative viability ([4]; first compound 1 µM)
201T,0.582,0.557,0.5,0.566,0.514,0.995,1.07,1.06,0.994,1.06,1.24,0.976,1.07,1.04,0.979,1.33,1.19,1.2,1.2,1.17
A549,–,–,–,–,–,0.791,0.901,0.782,0.671,0.646,–,–,–,–,–,1.14,1.18,1.23,1.21,1.13
A-427,0.656,0.694,0.674,0.348,0.598,0.848,0.792,0.939,0.866,0.843,0.903,0.907,1,0.794,0.81,0.978,0.92,0.914,0.67,0.624
ABC-1,0.504,0.539,0.608,0.545,0.515,1.15,1.05,1.21,0.91,1.09,0.795,0.782,0.507,0.912,0.876,–,–,–,–,–
BEN,0.349,0.298,0.331,0.252,0.26,0.948,0.856,0.929,0.795,0.871,0.376,0.402,0.33,0.376,0.597,0.0852,0.15,0.0576,0.0618,0.0501
CAL-12T,0.534,0.554,0.443,0.386,0.325,0.572,0.802,0.901,0.661,0.683,0.257,0.391,0.326,0.4,0.232,1.12,1.38,1.37,1.08,1.13
COR-L23,0.474,0.527,0.571,0.464,0.456,0.65,0.649,0.576,0.582,0.699,0.745,0.731,0.598,0.799,0.789,1.05,0.978,0.986,0.966,1.08
COR-L 105,0.275,0.279,0.371,0.307,0.276,0.613,0.887,0.905,0.814,0.711,0.69,0.972,0.832,0.93,0.801,0.707,0.805,0.815,0.827,0.598
Calu-6,–,–,–,–,–,0.781,0.744,0.758,0.704,0.781,–,–,–,–,–,0.794,0.838,0.796,0.788,0.795
ChaGo-K-1,0.598,0.582,0.613,0.545,0.627,1.02,0.613,1.12,1.07,1.02,0.595,0.673,0.724,0.577,0.651,1.06,0.913,0.76,0.69,0.444
EBC-1,–,–,–,–,–,0.17,0.217,0.21,0.178,0.171,–,–,–,–,–,0.467,0.526,0.444,0.447,0.396
EKVX,0.528,–,0.807,0.539,0.565,0.933,0.905,0.975,0.833,0.898,0.783,0.859,0.999,0.782,0.966,0.896,1.02,1.16,0.874,0.992
EMC-BAC-2,0.273,0.337,0.355,0.36,0.314,0.733,0.767,0.76,0.661,0.763,1.14,1.25,1.22,1.16,1.09,1.14,1.16,1.26,1.15,1.16
EPLC-272H,0.44,0.303,0.286,0.321,0.32,1.12,1.09,1.12,0.782,1.13,0.29,0.235,0.21,0.716,0.451,1.04,0.989,1.16,1.01,1.09
H3255,0.399,–,0.41,0.274,0.353,0.851,0.929,0.746,0.916,0.886,0.888,–,1.02,0.625,0.422,0.477,0.161,0.614,0.408,0.548
HARA,0.26,0.196,0.227,0.232,0.151,0.973,1.06,1.09,1.01,1.21,0.652,0.862,0.682,0.374,0.679,1.11,1.14,1.19,1.13,1.05
HCC-15,0.648,0.645,0.631,0.639,0.576,0.822,0.897,0.817,0.747,0.716,0.316,0.258,0.294,0.37,0.397,0.723,0.75,0.747,0.734,0.769
